Consider 79 compounds from the METLIN SMRT retention time set (Domingo-Almenara et al. 2019).

The series is described as follows: gradient 5% acetonitrile 3 min, to 50% in 2 min, to 85% in 15 min, held 3 min, 100 µL/min. As to conditions: column: Zorbax Extend-C18 2.1 x 50 mm; eluents: water / acetonitrile, 0.1% formic acid. In outline: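 In both positive and negative ionization mode, a quadrupole time-of-flight mass spectrometer coupled to HPLC analyzed pure standards run in mixtures of ~100 molecules. The Zorbax Extend-C18 column (2.1 × 50 mm, 1.8 μm) was operated at 100 μL/min with water and acetonitrile, each containing 0.1% formic acid. The dead volume was 40 μL and the dwell volume 900 μL. Retention time came from adduct peaks that were computationally picked and individually inspected by hand.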
Compound `CCOC(=O)c1ccc(Nc2c(-c3ccc(Cl)cc3)nc3cnccn23)cc1` registered an RP-LC retention time of 964 s.

In turn, `O=C1CCCN1c1ccc(Cn2cccc(S(=O)(=O)N3CCCC3)c2=O)cc1` returned an RP-LC retention time of 696 s.

Take `Cc1c(C(=O)NCC2CC2)cnn1-c1cc(-c2nc(C(C)(C)C)no2)ccn1`: the RP-LC retention time was 742 s.

`COCC1CN(S(=O)(=O)c2ccc(C#N)cc2)CC12CCNCC2` (centres undefined) gave an RP-LC retention time of 608 s.

`CCCCOc1ccc(CNC(=O)CCc2ccc3nc(CC)[nH]c3c2)cc1` displayed an RP-LC retention time of 683 s.

Regarding `CCc1nc2c(=O)n(CC(=O)N3CCCC(C)C3)nc(C)c2s1` (centres undefined), the RP-LC retention time is 726 s.

Consider `CCOc1ccc(-c2csc(Cc3nc(-c4cccc(Cl)c4)no3)n2)cc1`, for which the RP-LC retention time turned out to be 1340 s.

As for `Cc1nn(-c2ccccc2)c(C)c1S(=O)(=O)N1CCC(C(=O)NC(C)(C)C)CC1`, the RP-LC retention time is 894 s.

For `Cc1ccc(C(C)NC(=O)C2CC(=O)N(c3cccc(NC(=O)C(C)C)c3)C2)c(C)c1` (centres undefined), the RP-LC retention time worked out at 868 s.

For the compound `O=C(Cc1c(F)cccc1Cl)Nc1nc(-c2ccccc2)cs1`, the RP-LC retention time is 1040 s.

Regarding `O=C(CCNc1cnc2cnccn12)NCc1ccc(N2CCCCC2)cc1`, the RP-LC retention time came out at 533 s.

Consider `CCOCCOC1CCN(S(=O)(=O)Cc2ccccc2)CC1`, for which the RP-LC retention time was determined as 856 s.

`Cc1ccccc1-c1nc(Cn2ccnc2C)no1` came in with an RP-LC retention time of 555 s.

`COc1ccc(-c2cn3c(CC(=O)Nc4cccc(C#N)c4)csc3n2)cc1` displayed an RP-LC retention time of 756 s.

The compound `Cc1cccc(C(=O)Nc2ccc3c(c2)Sc2ncccc2C(=O)N3C)c1` had an RP-LC retention time of 809 s.

For `CC1Cc2ccccc2N1C(=O)CCC(=O)N1CCCN(c2cc(=O)n(C)c(=O)n2C)CC1` (centres undefined), the RP-LC retention time came out at 677 s.

On to `Fc1ccccc1N1CCN(Cc2nc(-c3ccc(N4CCCCC4)nc3)no2)CC1`, for which the RP-LC retention time amounted to 972 s.

`COc1ccc(-c2csc(Cc3nc(-c4ccc(C)cc4)no3)n2)cc1` showed an RP-LC retention time of 1240 s.

As to `CCC(=O)N(C1CCOCC1)C1CCN(S(=O)(=O)c2ccccc2Cl)CC1`, the RP-LC retention time is 840 s.

Turning to `Cc1ccc(F)cc1NC(=O)c1cc(C2CC2)n2nccc2n1`, the RP-LC retention time amounted to 1140 s.

The compound `Cc1nnc2cc(N3CCN(C(=O)Nc4ccc(F)cc4F)CC3)cnn12` displayed an RP-LC retention time of 597 s.

Take `CC1CCN(C(=O)c2cc3c(s2)CCC(C(=O)NCc2cccnc2)C3)CC1` (centres undefined): the RP-LC retention time was found to be 639 s.

In the case of `Cc1ccccc1CNC(=O)C1(C)CCCN(C(=O)Nc2cccc(Cl)c2C)C1` (centres undefined), the RP-LC retention time stood at 1060 s.

As for `CCCCN1CCN(c2ncccc2-c2nnc(-c3ccc(Cl)cc3)o2)CC1`, the RP-LC retention time turned out to be 743 s.

In the case of `COc1ccc(CNC(=O)N2CCC(n3c(-c4ccco4)nc4cccnc43)C2)cc1` (centres undefined), the RP-LC retention time stood at 759 s.

For the compound `CC(C(=O)N1CCCc2ccccc21)n1cnc2nc3c(cc2c1=O)CCCC3` (centres undefined), the RP-LC retention time is 818 s.

`C=CCNC(=O)Cn1c2c(c(=O)n3nc(-c4ccc(C)cc4)nc13)CCC2`: the RP-LC retention time was 720 s.

`CCc1ccc(NC(=O)N2CCC(n3cnc4cc(F)ccc4c3=O)CC2)cc1` registered an RP-LC retention time of 867 s.

With `CCOC(=O)Cc1csc(NC(=O)Cc2csc(Nc3cc(C)ccn3)n2)n1`, the RP-LC retention time came out at 624 s.

`Cc1nc(-c2csc(S(=O)(=O)N3CCC(C(=O)NCc4ccccc4Cl)CC3)c2)no1`: the RP-LC retention time worked out at 895 s.

`CCCN1C(=O)COc2ccc(-c3csc(NC(=O)C4CCCO4)n3)cc21` (centres undefined): the RP-LC retention time worked out at 896 s.

On to `Cc1ccc(Nc2cc(-n3ccnc3)ncn2)cc1`, for which the RP-LC retention time came out at 651 s.

The compound `COc1ccc(S(=O)(=O)N2CCC(OCCOc3ccccc3)CC2)cc1` returned an RP-LC retention time of 1070 s.

`CCCN1C(=O)COc2ccc(-c3noc(-c4cccc(C)c4)n3)cc21` came in with an RP-LC retention time of 1320 s.

`CCOC(=O)c1nc(N2CCN(c3ccccc3OC)CC2)c2ccccc2n1`: the RP-LC retention time was determined as 809 s.

`Cc1ccn2c(NC(=O)c3ccco3)c(-c3ccccc3)nc2c1` returned an RP-LC retention time of 622 s.

In turn, `COc1ccc(OC)c(S(=O)(=O)N2CCOc3ccc(NC(=O)C4CC4)cc3C2)c1` registered an RP-LC retention time of 823 s.

Turning to `Cn1cnc2ccc(-c3noc(-c4ccc(F)cc4)n3)cc21`, the RP-LC retention time is 739 s.

The compound `Cc1noc(C2(NS(=O)(=O)c3ccc(C#N)cc3)CCCCC2)n1` registered an RP-LC retention time of 773 s.

In turn, `COc1ccc(-c2nnc3sc(-c4ccncc4)nn23)cc1OC` came in with an RP-LC retention time of 710 s.

For `O=C1NCCCCCN(C(=O)CN2CCCCCC2)[C@H]2CCC[C@@H]12`, the RP-LC retention time was 567 s.

Take `COCCN1C(=O)CC[C@]2(C(=O)NCc3cc(F)ccc3F)CCCC[C@@H]12`: the RP-LC retention time was 724 s.

For the compound `Cc1nc2c(sc3nc(-c4ccccc4)ccc32)c(=O)n1CC(=O)Nc1ccc(F)c(Cl)c1`, the RP-LC retention time stood at 1140 s.

`O=C(Nc1cc(-c2ccccn2)no1)c1cccc(C(F)(F)F)c1` displayed an RP-LC retention time of 916 s.

On to `Cc1cc(C)cc(N2C(=O)CN(S(C)(=O)=O)CC2(C)C(=O)NCc2ccccc2)c1` (centres undefined), for which the RP-LC retention time was 851 s.

Compound `CCOc1ccc(S(=O)(=O)N2CCCC(C(=O)NCCCOC)C2)cc1C` (centres undefined) had an RP-LC retention time of 847 s.

In turn, `CCc1cccc(C)c1Nc1c(-c2ccc(OC)cc2)nc2ncccn12` registered an RP-LC retention time of 788 s.

With `CC(C)Cn1cc(S(=O)(=O)NCc2ccccc2Cl)c2cccnc21`, the RP-LC retention time turned out to be 1020 s.

For `Cc1sc(-c2cc(C(F)(F)F)on2)cc1S(=O)(=O)N1CCc2ccccc21`, the RP-LC retention time is 1270 s.

`CN(C)C(=O)c1cc2c(s1)CCC(C(=O)Nc1ccc3c(c1)OCO3)C2` (centres undefined) returned an RP-LC retention time of 698 s.

For `COc1ccc(Cc2nnc3sc(-c4ccccc4)nn23)cc1`, the RP-LC retention time came out at 810 s.

`Cc1nc(C(=O)N2CCCn3ccnc3C2C(C)C)co1` (centres undefined) gave an RP-LC retention time of 556 s.

Compound `Cc1cc(C)cc(Nc2nc(C)cc(=O)n2CC(=O)Nc2ccc3c(c2)OCCO3)c1` came in with an RP-LC retention time of 785 s.

In the case of `COc1cc2nc(C(=O)N3CCCCC3)cc(Nc3ccc(F)c(F)c3)c2cc1OC`, the RP-LC retention time stood at 720 s.

The compound `CN(C)c1cccc(-c2nc(C3CC(=O)N(c4ccc(Cl)cc4)C3)no2)c1` (centres undefined) returned an RP-LC retention time of 1110 s.

For `O=C(Nc1nccs1)c1ccc([N+](=O)[O-])cc1Cl`, the RP-LC retention time turned out to be 722 s.

On to `CCc1ccc(NC(=O)Cn2ccc3ccc(-c4nnc(C)o4)cc32)cc1`, for which the RP-LC retention time turned out to be 885 s.

The compound `Clc1cccc(-c2noc(Cc3nc(-c4ccccc4)cs3)n2)c1` gave an RP-LC retention time of 1280 s.

Compound `CCN1CCN(Cc2nc(Cn3ccn4nc(-c5ccc(C)c(C)c5)cc4c3=O)no2)CC1` displayed an RP-LC retention time of 674 s.

For the compound `CCCc1noc(-c2ccc(-n3ncc(C(=O)N4CCOCC4)c3C)nc2)n1`, the RP-LC retention time stood at 833 s.

`CN1C2CCC1CC(NC(=O)c1nn(C)c3ccccc13)C2` (centres undefined) registered an RP-LC retention time of 655 s.

As for `Cc1ccc(CNC(=O)C2CCCN(S(=O)(=O)c3cc(-c4noc(C)n4)cs3)C2)cc1` (centres undefined), the RP-LC retention time worked out at 974 s.

The compound `Cc1nnc(C2CCCN(C(=O)c3ccc(S(=O)(=O)N(C)C)cc3)C2)s1` (centres undefined) displayed an RP-LC retention time of 642 s.

Regarding `Cc1ccc(S(=O)(=O)N2CCCN(c3ccc(=O)n(-c4ccc(F)cc4)n3)CC2)cc1C`, the RP-LC retention time was 937 s.

`O=C([C@@H]1C[C@H](Oc2ccccc2)CN1C(=O)c1ccsc1)N1CCCC1` returned an RP-LC retention time of 756 s.

`O=C(NCc1ccccc1)C1CCN(S(=O)(=O)c2cc(C(=O)N3CCCC3)cs2)CC1` came in with an RP-LC retention time of 760 s.

Consider `CCNC(=O)C1CCCN(S(=O)(=O)c2cc(OC)ccc2OC)C1` (centres undefined), for which the RP-LC retention time came to 699 s.

The compound `Cc1nnc(C2CCCCCN2C(=O)c2ocnc2C)o1` (centres undefined) returned an RP-LC retention time of 628 s.

`Cc1c(C(=O)N2CCN(c3ccc(Cl)cc3)CC2)sc2nc[nH]c(=O)c12` displayed an RP-LC retention time of 769 s.

For `CCOC(=O)c1cc(C)nc2c1c(=O)n(Cc1cccc(C)c1)c(=O)n2C`, the RP-LC retention time turned out to be 1130 s.

As to `O=C(Cc1ccccc1Cl)N1CCc2nc(-c3ccc(Cl)cc3)ncc2C1`, the RP-LC retention time is 1140 s.

`CC(C)c1ccc(S(=O)(=O)N2CCC(n3c(-c4ccco4)nc4cccnc43)C2)cc1` (centres undefined) returned an RP-LC retention time of 1060 s.

Regarding `CCOC(=O)C1=C(CN2CCC(C(=O)OCC)CC2)NC(=O)NC1c1ccc(F)cc1` (centres undefined), the RP-LC retention time came out at 650 s.

In turn, `Cc1ccc(C)c(N2CCN(c3ccnc(SCC(=O)Nc4cccc(Cl)c4F)n3)CC2)c1` registered an RP-LC retention time of 1230 s.

Turning to `Cc1ccc2c(c1)N(C(=O)Cn1ccc3ccn(Cc4ccccc4)c3c1=O)CCO2`, the RP-LC retention time was 853 s.

Consider `COC(=O)c1ccc2c(=O)n(-c3cc(C)cc(C)c3)c(N3CCC(C)CC3)nc2c1`, for which the RP-LC retention time is 1420 s.

`O=C(Cn1nc(N2CCOCC2)c2ccccc2c1=O)Nc1ccccc1C(F)(F)F`: the RP-LC retention time was 804 s.

In turn, `O=C(O)c1cnc(NCc2ccncc2)nc1-c1ccccc1` showed an RP-LC retention time of 570 s.

In turn, `O=C(Cn1nc2c(Oc3cccc(F)c3)nccn2c1=O)Nc1ccc(F)cc1F` gave an RP-LC retention time of 835 s.
